The values below come from article PMC5736435 (European journal of medicinal chemistry, 2017).

In series [1] the test system is human colorectal cells (HRT-18). The series can be described thus: In vitro cytotoxicity. Type of series: cell-based. The note with it: for concentration not toxic to HRT-18 cells: MTS assay, two hours incubation; for safety margin: human, 2 h.
Series [2] deals with BHK-21. Kind of series: In vitro cytotoxicity. Type of series: cell-based, hamster. The note with it: MTT assay.
The subject of series [3] is MRSA (2658 RCMB). The series can be described thus: MIC by broth microdilution against MRSA clinical isolate 2658 RCMB. Type of series: cell-based. The note with it: Staphylococcus aureus.
The subject of series [4] is S. aureus NRS384. It counts as cell-based, Staphylococcus aureus. The note with it: S. aureus NRS384, resistance to macrolides and tetracyclines.
For series [5], the system named is S. aureus NRS107. The series can be described thus: MIC by broth microdilution against mupirocin-resistant S. aureus NRS107. Type of series: cell-based, Staphylococcus aureus. Particulars: S. aureus NRS107, high-level resistance to mupirocin.
Series [6] in a line: In vivo pharmacokinetics in rats. Particulars: rat.
In series [7] the test system is S. aureus NRS119. The series can be described thus: MIC by broth microdilution against linezolid-resistant S. aureus NRS119. The note with it: S. aureus NRS119, resistance to linezolid. It counts as cell-based, Staphylococcus aureus.
In series [8] the test system is MRSA USA300. It counts as cell-based, Staphylococcus aureus. Particulars: MRSA USA300, fourteen passages over two weeks.
Series [9] relates to MRSA USA300. Kind of series: Time-kill assay against MRSA. It counts as cell-based, Staphylococcus aureus.
The conditions of series [10]: in vivo; cited from earlier work.
In series [11] the test system is S. aureus NRS119. The note with it: cited from earlier work.
Series [12] is described as follows: PBS solubility screen. Type of series: physicochemical.
For series [13] the following is noted: phosphate-buffered saline; cited from earlier work.

≈ marks a conversion by molar mass, not a printed value.

With `Cc1nc(-c2ccc(-c3ccccc3)cc2)sc1-c1nnc(NC(=N)N2CCN(C)CC2)o1` [Compound 27, N-{5-(2-([1,1′-Biphenyl]-4-yl)-4-methylthiazol-5-yl)-1,3,4-oxadiazol-2-yl}-4-methylpiperazine-1-carboximid-amide], in series [1], the “concentration not toxic to HRT-18 cells” value is 512 µg/mL. Also, the safety margin result in [1] is given as “more than 400 ×MIC”. For the same compound, in [2], the “tolerability against non-cancerous cell line BHK-21” value is on record as “highly tolerable”. In series [3], the MIC turned out to be 1.1 µg/mL (≈ 2.39 µM). For the same compound, the “growth inhibition” value in series [4], in [5] and in [7] was “inhibited growth” in each case. For the same compound, the “Cmax relative to MIC against MRSA (2658 RCMB)” value in series [6] (in vivo, po, 25 mg/kg) is reported as “nearly six-fold”. Also, in [8], the “shift in MIC over fourteen passages” value is reported as “No increase in MIC”. Also, the “MRSA CFU after 24 h” value in [9] (after 24 h, 4 × MIC, 37 °C) was “completely eradicated”. Moreover, the “mode of action, bacteriostatic or bactericidal” value in [9] (at the concentration tested (4 × MIC)) is listed as “bactericidal”.
With `CCC[C@H](NC(=O)[C@@H]1[C@H]2CCC[C@H]2CN1C(=O)[C@@H](NC(=O)[C@@H](NC(=O)c1cnccn1)C1CCCCC1)C(C)(C)C)C(=O)C(=O)NC1CC1` [telaprevir], the oral bioavailability in series [10] is at most 3%.
Turning to `CCCCc1ccc(-c2nc(C)c(/C(C)=N/NC(=N)N)s2)cc1` [Compound 1a, reference compound], the safety margin in [1] was found to be 32 ×MIC. Moreover, in [6] (25 mg/kg oral dose), the “%F (oral bioavailability)” value was “not bioavailable orally”.
As for `CC(=O)NC[C@H]1CN(c2ccc(N3CCOCC3)c(F)c2)C(=O)O1` [linezolid], the MIC in series [11] was above 128 µg/mL.
Turning to `Cc1nc(-c2ccc(-c3ccccc3)cc2)sc1-c1nnc(NC(=N)N2CCOCC2)o1` [Compound 26, N-{5-(2-([1,1′-Biphenyl]-4-yl)-4-methylthiazol-5-yl)-1,3,4-oxadiazol-2-yl}morpholine-4-carboximidamide], the “concentration not toxic to HRT-18 cells” value in series [1] was determined as 256 µg/mL. In addition, in series [2], the “tolerability against non-cancerous cell line BHK-21” value was “highly tolerable”. For the same compound, the “shift in MIC over fourteen passages” value in series [8] was “No increase in MIC”.
Regarding `Cc1nc(-c2ccc(-c3ccccc3)cc2)sc1-c1nnc(NC(=N)N)o1` [Compound 22, 1-{5-(2-([1,1′-Biphenyl]-4-yl)-4-methylthiazol-5-yl)-1,3,4-oxadiazol-2-yl}guanidine], the “improvement in aqueous solubility relative to pyrimidine analogue 1c” value in [12] was 43 times.
Regarding `C/C(=N\NC(=N)N)c1sc(-c2ccc(-c3ccccc3)cc2)nc1C` [Compound 1b, reference compound], the “times less soluble than lead compound 1a” value in series [13] is reported as 24 times. Further, in series [12] (Solubility limit), the concentration in solution (solubility at 2 h) was 2.2 µM (≈ 0.769 µg/mL).
